From US11786507B2, “Methods of treating HIV-associated neurological disorders (HAND)” (priority 2020, dated 2023)

Columns and labels:
[1] = system: hippocampal slice cultures; settings: cited from earlier work
striatal neurons = settings: cited from earlier work
[2] = system: cerebellar granule neurons; settings: cited from earlier work
iTat mice [3] = assay: Morris Water Maze (MWZ), training stage and probe test; format: in vivo, mouse
Excerpt: (§1) Doxycycline (Dox)-inducible and astrocyte-specific HIV-1 Tat-transgenic mice (iTat) were generated as previously described.^38 Wild-type (Wt, C57BL/6) and α7 nAChR knockout mice (α7^−/−, B6.129S7-Chrna^7tm1Ba/J) were purchased from the Jackson Laboratory (Bar Harbor, ME). All the animal procedures were approved by the Institutional Animal Care and Use Committee. Mice were housed with a 12-hour light and 12-hour dark photoperiod and provided water and food ad libitum. α7^−/− iTat mice were generated by cross breeding iTat mice with α7^−/− mice. α7^−/− genotyping was slightly modified with the JumpStart™ Taq DNA Polymerase-based PCR (JumpStart™ Taq DNA Polymerase, Sigma, catalog #D9307). […] Mice of 10-14 weeks old with body weights of 20-35 grams were fed with Dox-containing diet (0.625 g/kg, Envigo, catalog #TD.01306) as stated.
(§2) Open Field Test (OPT) and Morris Water Maze (MWZ) were performed sequentially using a computerized video tracking system (Anymaze, Stoelting) to determine the spontaneous locomotor activity and spatial learning and memory, respectively. For OPT, each mouse was allowed to move freely around a clear acrylic chamber (40.5×40.5×30.5 cm) for 10 minutes. Travel distance and maximum speed was determined by the AnyMaze software. For MWZ, a circle pool (1.2 m diameter) surrounded with a curtain was divided into four equal quadrants, and four signs with different shape were fixed onto the middle of each quadrant wall above the opaque water (24±1° C.). A hidden platform (1.5 cm below water surface) was put into a certain quadrant. Two stages consisting of 5-day training and probe test were carried out. In the training stage, four trials with a 15-20 minute interval were conducted in the every-day training, and for each trial mice were allowed to freely seek the platform within 90 seconds right after they were randomly put into one quadrant facing to the pool wall. If the mice found the platform within 90 seconds, 10 seconds would be added to allow them staying on the platform for memorizing, however, if failed, they would be directed toward the platform and allowed to stay on it for 15 seconds. Mice that were immobile or floating and unable to find the platform during the training stages were excluded from the experiments. Probe test was carried out on the next day following the 5-day training stage with a 60 seconds trial, and the platform was removed to prevent the mice from climbing onto it during the testing. One day after the behavioral tests, mice were euthanized and the brains were harvested.
To determine if α7 nAChR is involved in HAND, iTat mice were fed with Dox-containing food pellets for 7 days, […], and then subjected to open field test (OPT) for locomotor activity on day 14, and Morris Water Maze test (MWZ) for learning and spatial memory on day 15-20, and euthanized to harvest tissues on day 21 (FIG. 1A). Dox-containing food pellet feeding and PAM injection continued during the next 7 days of behavioral tests. To minimize the effects of injection on behavioral tests, PAM was injected 5 hours after each behavioral test.

iTat mice [4] = assay: Open Field Test (OPT), locomotor activity; format: in vivo, mouse
Excerpt: as §1, §2
To determine if α7 nAChR is involved in HAND, iTat mice were fed with Dox-containing food pellets for 7 days, injected s.c. with a well-studied and highly specific positive allosteric modulator (PAM) PNU-120596 of α7 nAChR^73,74 […], and then subjected to open field test (OPT) for locomotor activity on day 14, and Morris Water Maze test (MWZ) for learning and spatial memory on day 15-20, and euthanized to harvest tissues on day 21 (FIG. 1A). Dox-containing food pellet feeding and PAM injection continued during the next 7 days of behavioral tests. To minimize the effects of injection on behavioral tests, PAM was injected 5 hours after each behavioral test.

iTat mice [5] = assay: Western blotting of SYP, PSD-95, GFAP, Iba-1 in cortex and hippocampus; format: in vivo, mouse; settings: CORT and HIP, SB239063-treated iTat vs Wt
Excerpt: as §1
A RIPA buffer (50 mM Tris.HCl, pH 8.0, 280 mM NaCl, 0.5% NP-40, 1% C24H39NaO4, 0.2 mM EDTA, 2 mM EGTA and 10% glycerol) supplemented with protease inhibitors (Millipore-Sigma, catalog #S8830) and phosphatase inhibitors (Millipore-Sigma, catalog #4906845001) was used to lyse the brain tissues and cultured cells with brief sonication on ice. Protein concentrations of the lysates were determined using a Bio-Rad DC protein assay kit (Bio-Rad, catalog #5000111). Lysates were denatured in the SDS-PAGE loading buffer at 100° C. for 10 min, then electrophoretically separated by 8-15% SDS-PAGE, blotted onto 0.45 μm polyvinylidene fluoride membrane (GE Healthcare Life Sciences, catalog #10600023), and probed using appropriate antibodies against PSD-95 (Abcam, catalog #ab18258, and 1:2000 dilution), SYP (Abcam, catalog #ab8049, and 1:1000 dilution), Iba-1 (Wako, catalog #016-20001, and 1:500 dilution) and GFAP (DAKO, catalog #z330s, and 1:2000 dilution), p-p38 (Santa Cruz, catalog #sc-166182, and 1:1000 dilution), p38 (Santa cruz, catalog #sc-535, and 1:1000 dilution), p-JNK (Santa cruz, catalog #sc-6254, and 1:1000 dilution), JNK (Santa cruz, catalog #sc-571, and 1:1000 dilution), p-ERK (Santa cruz, catalog #sc-7383, and 1:1000 dilution), and ERK (Santa cruz, catalog #sc-514302, and 1:1000 dilution), α7 nAChR (Alomone, catalog #ANC-007, and 1:1000 dilution) and β-actin (Sigma-Aldrich, catalog #A1978, and 1:2000 dilution). A Bio-Rad ChemicDoc imaging system (Bio-Rad) and Image J were used for image capturing and analysis, respectively. […]

[6] = iTat vs Wt mice, SB239063 15 mg/kg/day i.p.

Q: With Oc1ccc(-c2nc(-c3ccc(F)cc3)c(-c3ccncc3)[nH]2)cc1 [SB202190] as the compound, how does the “Tat-induced inflammation and oxidation” value [1] read?
A: The value was “decreased”.

Q: What does the source list for C[S+]([O-])c1ccc(-c2nc(-c3ccc(F)cc3)c(-c3ccncc3)[nH]2)cc1 (stereo not drawn) [SB203580]?
A: Tat-induced neurite losses and cell death (striatal neurons): failed to block; Tat-induced apoptosis [2]: prevented

Q: Which results are given for COc1nccc(-c2c(-c3ccc(F)cc3)ncn2C2CCC(O)CC2)n1 (stereo not drawn) [SB239063]?
A: MWZ probe test platform entries, time at/distance to target quadrant, time at/distance to platform (iTat mice [3]; SB239063-treated female iTat mice vs vehicle-treated female Wt and iTat and SB239063-treated female Wt): fewer platform entries, shorter time at target quadrant, distance to target quadrant, time at platform, and distance to platform; Cognition, learning and memory effects (iTat mice [3]; Wt mice treated with SB239063): Some beneficial effects; MWZ probe test latency to platform (iTat mice [3]; female iTat mice, SB239063 vs vehicle): longer latency to platform than vehicle-treated female iTat mice; MWZ training stage cumulative distance (iTat mice [3]; [6]): difference between SB239063-treated male iTat and male Wt mice on day 2 and 3 and female iTat and Wt mice on day 4; MWZ training stage escape latency (iTat mice [3]; [6]): even longer escape latency than Wt mice, with differences on day 3 and 4 for male mice; MWZ probe test platform entries, distance to target quadrant, distance to platform (iTat mice [3]; male iTat vs male Wt mice, SB239063 15 mg/kg/day i.p.): fewer platform entries, shorter distance to target quadrant and distance to platform than Wt male mice; OPT travel distance and maximum speed, Wt vs iTat mice (iTat mice [4]; SB239063 15 mg/kg/day i.p., male and female): no significant differences in travel distance and maximum speed between Wt and iTat mice; OPT performance, female vs male mice (iTat mice [4]; Wt and iTat mice in response to SB239063): both female Wt and female iTat mice performed better in the OPT than male Wt and male iTat mice; OPT travel distance, SB239063-treated vs vehicle-treated (iTat mice [4]; female Wt and iTat mice, 15 mg/kg/day i.p.): difference of travel distance between SB239063-treated and vehicle-treated female mice; SYP, GFAP and Iba-1 expression (iTat mice [5]; female mice): lower SYP, GFAP and Iba-1 with differences than SB239063-treated Wt mice; PSD-95 expression (iTat mice [5]; male and female): lower PSD-95 than SB239063-treated Wt mice; SYP and GFAP expression (iTat mice [5]; male mice): no differences of SYN and GFAP (except HIP) from SB239063-treated Wt mice
